# Source: US20230416232A1, “PYRIMIDINE COMPOUNDS, COMPOSITIONS, AND MEDICINAL APPLICATIONS THEREOF” (Blueprint Medicines Corporation, priority 2020, published 2023)
# pIC50: −log10 of the molar value.
# Key:
# Type in all cases: cell-based
# [1] = molecular target: EGFR (A767_dupASV) expressing Ba/F3 stable cell line (Homo sapiens, UniProt P00533, DUP767-769, cells depend on it); experiment: Cellular proliferation (Alamar Blue) assay, EGFR (A767_dupASV) Ba/F3; conditions: 72 hr, read-out: A767 IC50
# How it was run: (§1)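 Engineered Ba/F3 lines in RPMI with 10% FBS and A431 cells in DMEM with 10% FBS are plated overnight, exposed to compound dilutions (10-0.0005 μM final) for 72 hours, and then scored by a 3-hour Alamar Blue incubation.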
# [2] = system: A431 cells; experiment: Cellular proliferation (Alamar Blue) assay, A431 cells; conditions: Homo sapiens, A-431, 72 h, A431 cells; 72 hr; Alamar Blue; read-out: A431 IC50
# How it was run: as §1
# [3] = molecular target: EGFR (H773insNPH) expressing Ba/F3 stable cell line (Homo sapiens, UniProt P00533, DUP771-773, cells depend on it); experiment: Cellular proliferation (Alamar Blue) assay, EGFR (H773insNPH) Ba/F3; conditions: 72 hr, read-out: NPH IC50
# Experimental: Cell line details: • 1. EGFR(D770_N771insSVD) expressing Ba/F3 stable cell line • 2. EGFR (A767_dupASV) expressing Ba/F3 stable cell line • 3. A431 cells • 4. EGFR (H773insNPH) expressing Ba/F3 stable cell line • 5. HER2 (A775_G776insYVMA) expressing Ba/F3 stable cell line
# • 1. Seed cells at 5000 for A431 and 15,000 cells for Ba/F3 in 100 μL/well in complete media (for A431: DMEM with 10% FBS and for Ba/F3 cells: RPMI with 10% FBS) in 96-well tissue culture plate. Leave outer wells without cells for background measurements. Incubate at 37 degree Celsius in 5% CO2 humidified incubator for 16-18 hours. • 2. Add 0.025 ml of 5X concentration compound dilution or DMSO control. Final compound concentration range is 10-0.0005 μM prepared in 3-fold serial dilutions. Incubate for 72 hr at 37 degree Celsius in 5% CO2 humidified incubator. • 3. Add 0.0125 ml Alamar Blue™ reagent to each well with multi-channel pipette and tap gently on each side of the plate to mix. Incubate for 3 hours at 37 degree Celsius in 5% CO2 humidified incubator. • 4. […] Data analysis was performed using XLfit 5.5.0.5.
# [4] = molecular target: HER2 (A775_G776insYVMA) expressing Ba/F3 stable cell line (Homo sapiens, UniProt P04626, DUP772-775, cells depend on it); experiment: Cellular proliferation (Alamar Blue) assay, HER2 (A775_G776insYVMA) Ba/F3; conditions: HER2 (A775_G776insYVMA) Ba/F3 cells; 72 hr; Alamar Blue; read-out: YVMA IC50
# How it was run: as §1
# [5] = molecular target: EGFR(D770_N771insSVD) expressing Ba/F3 stable cell line (Homo sapiens, UniProt P00533, DUP768-770, cells depend on it); experiment: Cellular proliferation (Alamar Blue) assay, EGFR(D770_N771insSVD) Ba/F3; conditions: 72 hr, read-out: D770 IC50
# How it was run: as §1
# EGFR (A767_dupASV) expressing Ba/F3 stable cell line, sequence (P00533 with tags, fused parts or gaps DUP767-769): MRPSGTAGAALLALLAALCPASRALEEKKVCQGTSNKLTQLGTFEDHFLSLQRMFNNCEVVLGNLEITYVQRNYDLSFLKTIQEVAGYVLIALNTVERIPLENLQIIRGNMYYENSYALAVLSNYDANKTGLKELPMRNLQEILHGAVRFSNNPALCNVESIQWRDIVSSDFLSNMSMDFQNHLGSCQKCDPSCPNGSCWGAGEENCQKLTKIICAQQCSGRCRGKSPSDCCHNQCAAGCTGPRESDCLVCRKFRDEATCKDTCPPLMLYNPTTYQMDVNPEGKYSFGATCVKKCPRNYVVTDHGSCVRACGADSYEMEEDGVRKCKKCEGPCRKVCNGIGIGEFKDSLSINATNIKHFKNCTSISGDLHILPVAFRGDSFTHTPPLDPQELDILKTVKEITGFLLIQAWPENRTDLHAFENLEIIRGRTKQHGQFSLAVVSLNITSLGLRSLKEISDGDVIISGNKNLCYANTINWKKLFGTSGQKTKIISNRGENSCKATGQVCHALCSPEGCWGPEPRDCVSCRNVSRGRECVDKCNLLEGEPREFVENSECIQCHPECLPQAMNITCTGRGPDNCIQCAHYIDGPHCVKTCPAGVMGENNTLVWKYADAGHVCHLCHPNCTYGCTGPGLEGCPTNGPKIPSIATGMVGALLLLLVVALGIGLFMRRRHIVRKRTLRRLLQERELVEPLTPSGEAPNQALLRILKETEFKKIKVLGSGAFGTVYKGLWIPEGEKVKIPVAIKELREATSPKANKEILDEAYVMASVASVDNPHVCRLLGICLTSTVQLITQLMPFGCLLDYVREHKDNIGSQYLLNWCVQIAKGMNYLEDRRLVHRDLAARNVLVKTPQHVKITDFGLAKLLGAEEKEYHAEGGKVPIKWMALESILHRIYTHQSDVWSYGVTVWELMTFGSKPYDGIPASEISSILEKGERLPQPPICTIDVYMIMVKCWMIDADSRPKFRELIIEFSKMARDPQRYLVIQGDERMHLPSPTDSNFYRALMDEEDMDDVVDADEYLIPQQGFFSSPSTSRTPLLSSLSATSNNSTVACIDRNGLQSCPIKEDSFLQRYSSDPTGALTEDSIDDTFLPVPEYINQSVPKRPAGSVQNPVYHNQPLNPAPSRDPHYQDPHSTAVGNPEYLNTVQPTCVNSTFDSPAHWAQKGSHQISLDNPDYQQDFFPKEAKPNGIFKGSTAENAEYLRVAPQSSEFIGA
# EGFR(D770_N771insSVD) expressing Ba/F3 stable cell line, sequence (P00533 with tags, fused parts or gaps DUP768-770): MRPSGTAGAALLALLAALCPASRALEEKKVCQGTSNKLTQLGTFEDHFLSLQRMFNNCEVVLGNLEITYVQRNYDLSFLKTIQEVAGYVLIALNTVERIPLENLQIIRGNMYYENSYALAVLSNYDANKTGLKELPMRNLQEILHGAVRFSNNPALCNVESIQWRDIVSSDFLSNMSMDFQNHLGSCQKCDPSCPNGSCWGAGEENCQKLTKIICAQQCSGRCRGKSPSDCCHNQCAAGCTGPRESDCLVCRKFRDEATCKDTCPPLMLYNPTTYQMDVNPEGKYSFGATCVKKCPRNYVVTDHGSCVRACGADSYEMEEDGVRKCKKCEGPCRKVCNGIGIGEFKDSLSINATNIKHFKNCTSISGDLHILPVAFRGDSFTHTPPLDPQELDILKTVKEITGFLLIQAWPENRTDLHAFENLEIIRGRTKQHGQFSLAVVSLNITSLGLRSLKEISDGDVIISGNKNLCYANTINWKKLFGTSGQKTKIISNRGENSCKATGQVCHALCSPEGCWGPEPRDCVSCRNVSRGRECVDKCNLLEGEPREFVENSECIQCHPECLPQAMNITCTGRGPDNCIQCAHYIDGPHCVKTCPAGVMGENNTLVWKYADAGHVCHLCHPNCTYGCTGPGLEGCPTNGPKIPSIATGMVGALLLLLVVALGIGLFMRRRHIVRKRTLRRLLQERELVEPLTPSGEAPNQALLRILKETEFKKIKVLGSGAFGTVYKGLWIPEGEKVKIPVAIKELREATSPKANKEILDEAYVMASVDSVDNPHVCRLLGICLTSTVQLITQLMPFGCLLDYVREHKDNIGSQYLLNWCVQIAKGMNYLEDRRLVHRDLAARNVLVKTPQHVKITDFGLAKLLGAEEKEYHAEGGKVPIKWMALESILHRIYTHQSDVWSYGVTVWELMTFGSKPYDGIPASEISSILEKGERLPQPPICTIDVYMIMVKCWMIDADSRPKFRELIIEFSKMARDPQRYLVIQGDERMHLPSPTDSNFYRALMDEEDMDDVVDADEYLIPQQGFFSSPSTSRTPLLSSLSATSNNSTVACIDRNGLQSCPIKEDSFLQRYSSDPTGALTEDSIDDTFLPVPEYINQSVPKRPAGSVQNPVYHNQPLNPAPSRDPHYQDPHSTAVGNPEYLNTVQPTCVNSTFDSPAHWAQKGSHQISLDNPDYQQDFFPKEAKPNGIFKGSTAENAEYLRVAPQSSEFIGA
# HER2 (A775_G776insYVMA) expressing Ba/F3 stable cell line, sequence (P04626 with tags, fused parts or gaps DUP772-775): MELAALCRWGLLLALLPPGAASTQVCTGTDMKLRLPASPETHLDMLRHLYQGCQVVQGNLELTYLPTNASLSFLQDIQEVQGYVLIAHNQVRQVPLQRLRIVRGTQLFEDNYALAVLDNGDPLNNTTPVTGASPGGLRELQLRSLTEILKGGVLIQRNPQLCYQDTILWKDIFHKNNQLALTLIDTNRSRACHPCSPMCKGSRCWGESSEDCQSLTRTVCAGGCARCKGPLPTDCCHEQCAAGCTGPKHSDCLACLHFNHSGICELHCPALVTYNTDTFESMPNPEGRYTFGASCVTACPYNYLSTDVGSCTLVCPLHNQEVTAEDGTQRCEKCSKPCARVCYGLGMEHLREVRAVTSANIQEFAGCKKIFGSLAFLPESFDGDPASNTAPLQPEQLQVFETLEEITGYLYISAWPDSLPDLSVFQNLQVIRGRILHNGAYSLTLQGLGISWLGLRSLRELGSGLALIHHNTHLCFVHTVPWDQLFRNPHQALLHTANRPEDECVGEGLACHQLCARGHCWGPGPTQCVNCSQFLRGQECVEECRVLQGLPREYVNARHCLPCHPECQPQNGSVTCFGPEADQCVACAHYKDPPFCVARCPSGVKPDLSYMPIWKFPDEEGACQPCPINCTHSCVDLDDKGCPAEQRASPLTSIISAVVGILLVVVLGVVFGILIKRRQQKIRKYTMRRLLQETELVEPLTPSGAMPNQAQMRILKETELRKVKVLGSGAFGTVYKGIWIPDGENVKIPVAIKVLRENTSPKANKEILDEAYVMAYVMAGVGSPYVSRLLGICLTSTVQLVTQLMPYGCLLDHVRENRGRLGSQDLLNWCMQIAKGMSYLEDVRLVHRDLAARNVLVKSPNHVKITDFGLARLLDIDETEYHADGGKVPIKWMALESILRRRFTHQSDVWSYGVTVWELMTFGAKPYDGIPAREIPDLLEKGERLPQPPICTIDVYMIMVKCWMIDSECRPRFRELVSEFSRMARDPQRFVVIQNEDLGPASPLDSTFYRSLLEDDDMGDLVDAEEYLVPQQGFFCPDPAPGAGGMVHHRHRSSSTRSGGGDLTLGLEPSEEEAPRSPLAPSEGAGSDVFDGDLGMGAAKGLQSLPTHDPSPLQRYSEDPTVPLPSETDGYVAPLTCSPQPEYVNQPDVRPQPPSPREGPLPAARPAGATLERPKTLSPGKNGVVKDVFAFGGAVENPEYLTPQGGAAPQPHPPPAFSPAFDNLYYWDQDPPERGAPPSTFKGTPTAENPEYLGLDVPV
# EGFR (H773insNPH) expressing Ba/F3 stable cell line, sequence (P00533 with tags, fused parts or gaps DUP771-773): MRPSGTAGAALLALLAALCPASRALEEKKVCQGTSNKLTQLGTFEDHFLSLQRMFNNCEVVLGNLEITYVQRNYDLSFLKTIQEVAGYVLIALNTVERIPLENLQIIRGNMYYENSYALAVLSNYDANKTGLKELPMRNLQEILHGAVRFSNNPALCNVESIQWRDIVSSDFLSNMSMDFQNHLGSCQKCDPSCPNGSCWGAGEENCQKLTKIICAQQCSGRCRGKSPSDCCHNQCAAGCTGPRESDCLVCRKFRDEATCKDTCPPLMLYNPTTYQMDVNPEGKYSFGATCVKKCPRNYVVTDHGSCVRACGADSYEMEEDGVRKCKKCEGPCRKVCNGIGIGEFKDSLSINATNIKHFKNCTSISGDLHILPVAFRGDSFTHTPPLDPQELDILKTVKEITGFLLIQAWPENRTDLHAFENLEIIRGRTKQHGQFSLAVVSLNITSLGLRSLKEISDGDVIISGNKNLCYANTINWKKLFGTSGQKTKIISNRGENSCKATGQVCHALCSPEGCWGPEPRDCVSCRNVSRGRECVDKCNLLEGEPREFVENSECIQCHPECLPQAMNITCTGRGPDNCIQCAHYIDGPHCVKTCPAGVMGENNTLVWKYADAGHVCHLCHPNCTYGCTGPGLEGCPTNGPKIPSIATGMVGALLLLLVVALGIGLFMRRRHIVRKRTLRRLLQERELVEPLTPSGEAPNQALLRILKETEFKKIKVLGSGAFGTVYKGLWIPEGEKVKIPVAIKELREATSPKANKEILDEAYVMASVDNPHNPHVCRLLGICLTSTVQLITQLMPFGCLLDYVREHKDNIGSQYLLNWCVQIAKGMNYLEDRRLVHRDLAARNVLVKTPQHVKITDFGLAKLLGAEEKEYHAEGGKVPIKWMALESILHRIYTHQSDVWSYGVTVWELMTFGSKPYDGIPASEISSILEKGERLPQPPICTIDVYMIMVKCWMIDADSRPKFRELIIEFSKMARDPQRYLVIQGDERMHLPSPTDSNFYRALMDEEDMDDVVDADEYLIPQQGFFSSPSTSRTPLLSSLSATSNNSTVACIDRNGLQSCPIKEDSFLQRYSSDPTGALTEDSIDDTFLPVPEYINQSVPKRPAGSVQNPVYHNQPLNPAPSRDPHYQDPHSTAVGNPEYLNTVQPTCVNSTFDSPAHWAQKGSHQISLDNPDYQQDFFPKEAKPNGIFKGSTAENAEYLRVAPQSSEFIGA
GI50 [1] [nM],pIC50 [2],GI50 [3] [nM],GI50 [4] [nM],GI50 [5] [nM],Structure (SMILES)
26,6.85,59,107,,"C=CC(=O)Nc1ccc(F)c(Nc2nc(Nc3cnn(C)c3)ncc2-c2ccc(OC(F)(F)F)c(F)c2)c1 [Compound 14, N-(4-fluoro-3-((5-(3-fluoro-4-(trifluoromethoxy)phenyl)-2-((1-methyl-1H-pyrazol-4-yl)amino)pyrimidin-4-yl)amino)phenyl)acrylamide]"
,6.52,40,91,35,"C=CC(=O)Nc1cccc(Nc2nc(Nc3cnn(C)c3)ncc2-c2ccc(N(C)C)c(F)c2)c1 [Compound 30, N-(3-((5-(4-(dimethylamino)-3-fluorophenyl)-2-((1-methyl-1H-pyrazol-4-yl)amino)pyrimidin-4-yl)amino)phenyl)acrylamide]"
39,6.52,50,84,,"C=CC(=O)Nc1ccc(F)c(Nc2nc(Nc3cnn(C)c3)ncc2-c2cc(F)cc(Cl)c2)c1 [Compound 34, N-(3-((5-(3-chloro-5-fluorophenyl)-2-((1-methyl-1H-pyrazol-4-yl)amino)pyrimidin-4-yl)amino)-4-fluorophenyl)acrylamide]"
,7.17,31,36,,"C=CC(=O)Nc1ccc(F)c(Nc2nc(Nc3cnn(C)c3)ncc2-c2cnc(Cl)c(C)c2)c1 [Compound 48, N-(3-((5-(6-chloro-5-methylpyridin-3-yl)-2-((1-methyl-1H-pyrazol-4-yl)amino)pyrimidin-4-yl)amino)-4-fluorophenyl)acrylamide]"
56,6.96,79,,38,"C=CC(=O)Nc1ccc(F)c(Nc2nc(Nc3cnn(CCO)c3)ncc2-c2ccc(Cl)c(Cl)c2)c1 [Compound 51, N-(3-((5-(3,4-dichlorophenyl)-2-((1-(2-hydroxyethyl)-1H-pyrazol-4-yl)amino)pyrimidin-4-yl)amino)-4-fluorophenyl)acrylamide]"
184,,186,260,85,"C=CC(=O)Nc1ccc(F)c(Nc2nc(Nc3cnn(C)c3)ncc2-c2ccc(C(F)(F)F)c(Cl)c2)c1 [Compound 54, N-(3-((5-(3-chloro-4-(trifluoromethyl)phenyl)-2-((1-methyl-1H-pyrazol-4-yl)amino)pyrimidin-4-yl)amino)-4-fluorophenyl)acrylamide]"
800,5.65,3640,,2240,"C=CC(=O)Nc1ccc(F)c(Nc2nc(Nc3cnn(C)c3)ncc2-c2ccc(C3=CCN(C)CC3)c(F)c2)c1 [Compound 55, N-(4-fluoro-3-((5-(3-fluoro-4-(1-methyl-1,2,3,6-tetrahydropyridin-4-yl)phenyl)-2-((1-methyl-1H-pyrazol-4-yl)amino)pyrimidin-4-yl)amino)phenyl)acrylamide]"
23,7.22,21,,14,"C=CC(=O)Nc1cccc(Nc2nc(Nc3cnn(C)c3)ncc2-c2ccc(Cl)c(F)c2)c1 [Compound 68, N-(3-((5-(4-chloro-3-fluorophenyl)-2-((1-methyl-1H-pyrazol-4-yl)amino)pyrimidin-4-yl)amino)phenyl)acrylamide]"
14,7.14,21,27,,"C=CC(=O)Nc1cccc(Nc2nc(Nc3cnn(C)c3)ncc2-c2ccc(OC)c(F)c2)c1 [Compound 69, N-(3-((5-(3-fluoro-4-methoxyphenyl)-2-((1-methyl-1H-pyrazol-4-yl)amino)pyrimidin-4-yl)amino)phenyl)acrylamide]"
101,6.28,92,,122,"C=CC(=O)Nc1ccc(F)c(Nc2nc(Nc3cnn(C)c3)ncc2-c2ccc(N3CCCOCC3)c(F)c2)c1 [Compound 84, N-(4-fluoro-3-((5-(3-fluoro-4-(1,4-oxazepan-4-yl)phenyl)-2-((1-methyl-1H-pyrazol-4-yl)amino)pyrimidin-4-yl)amino)phenyl)acrylamide]"
,7.74,116,83,,"C=CC(=O)Nc1ccc(F)c(Nc2nc(Nc3cnn(C)c3)ncc2-c2ccc(Br)c(F)c2)c1 [Compound 87, N-(3-{[5-(4-bromo-3-fluorophenyl)-2-[(1-methyl-1H-pyrazol-4-yl)amino]pyrimidin-4-yl]amino}-4-fluorophenyl) prop-2-enamide]"
40,7.51,35,144,,"C=CC(=O)Nc1ccc(F)c(Nc2nc(Nc3cnn(C4COC4)c3)ncc2-c2ccc(Br)c(F)c2)c1 [Compound 94, N-(3-((5-(4-bromo-3-fluorophenyl)-2-((1-(oxetan-3-yl)-1H-pyrazol-4-yl)amino)pyrimidin-4-yl)amino)-4-fluorophenyl)acrylamide]"
> 10000,5.28,,> 9040,> 10000,"C=CC(=O)Nc1cc(F)c(F)c(Nc2nc(Nc3cnn(C)c3)ncc2-c2cc(F)cc(OC)c2)c1 [Compound 170, N-(3,4-difluoro-5-((5-(3-fluoro-5-methoxyphenyl)-2-((1-methyl-1H-pyrazol-4-yl)amino)pyrimidin-4-yl)amino)phenyl)acrylamide]"
99,7.24,,113,79,"CN(C)C/C=C/C(=O)Nc1ccc(F)c(Nc2nc(Nc3cnn(C)c3)ncc2-c2cc(F)c(Br)c(F)c2)c1 [Compound 171, (E)-N-(3-((5-(4-bromo-3,5-difluorophenyl)-2-((1-methyl-1H-pyrazol-4-yl)amino)pyrimidin-4-yl)amino)-4-fluorophenyl)-4-(dimethylamino)but-2-enamide]"
967,6.23,,5980,843,"C=CC(=O)Nc1ccc(F)c(Nc2nc(Nc3cnn(C)c3)ncc2-c2cc(F)cc(OC(F)(F)F)c2)c1 [Compound 172, N-(4-fluoro-3-((5-(3-fluoro-5-(trifluoromethoxy)phenyl)-2-((1-methyl-1H-pyrazol-4-yl)amino)pyrimidin-4-yl)amino)phenyl)acrylamide]"
311,6.11,,1520,101,"C=CC(=O)Nc1cc(Br)cc(Nc2nc(Nc3cnn(C)c3)ncc2-c2cc(F)cc(Cl)c2)c1 [Compound 173, N-(3-bromo-5-((5-(3-chloro-5-fluorophenyl)-2-((1-methyl-1H-pyrazol-4-yl)amino)pyrimidin-4-yl)amino)phenyl)acrylamide]"
120,6.45,,759,42,"C=CC(=O)Nc1cc(Br)cc(Nc2nc(Nc3cnn(C)c3)ncc2-c2cc(F)cc(C(F)F)c2)c1 [Compound 174, N-(3-bromo-5-((5-(3-(difluoromethyl)-5-fluorophenyl)-2-((1-methyl-1H-pyrazol-4-yl)amino)pyrimidin-4-yl)amino)phenyl)acrylamide]"
224,6.46,,1620,136,"Cn1cc(Nc2ncc(-c3ccc(Br)c(F)c3)c(Nc3cc(NC(=O)/C=C/CF)ccc3F)n2)cn1 [Compound 175, (E)-N-(3-((5-(4-bromo-3-fluorophenyl)-2-((1-methyl-1H-pyrazol-4-yl)amino)pyrimidin-4-yl)amino)-4-fluorophenyl)-4-fluorobut-2-enamide]"
